The target of this assay is PKBα (Homo sapiens, UniProt P31749). The assay is described as follows: PKB kinase assay (P33-labeled ATP, peptide substrate, filter plate). The format is biochemical. As to conditions: PKBα enzyme (full length or kinase domain with pleckstrin domain deleted). The source says: The kinase assay for evaluating PKB activity comprises active PKB enzymes, a PKB specific substrate, and P^33-labeled ATP. […] The phosphorylated substrate was captured by a phosphocellulose membrane filter plate (MLLIPORE) and measured by a Wallac Microbeta liquid scintillation counter (Perkin Elmer).

Each structure is given as a SMILES string.

PKBα, sequence (P31749 118-480 limits assumed): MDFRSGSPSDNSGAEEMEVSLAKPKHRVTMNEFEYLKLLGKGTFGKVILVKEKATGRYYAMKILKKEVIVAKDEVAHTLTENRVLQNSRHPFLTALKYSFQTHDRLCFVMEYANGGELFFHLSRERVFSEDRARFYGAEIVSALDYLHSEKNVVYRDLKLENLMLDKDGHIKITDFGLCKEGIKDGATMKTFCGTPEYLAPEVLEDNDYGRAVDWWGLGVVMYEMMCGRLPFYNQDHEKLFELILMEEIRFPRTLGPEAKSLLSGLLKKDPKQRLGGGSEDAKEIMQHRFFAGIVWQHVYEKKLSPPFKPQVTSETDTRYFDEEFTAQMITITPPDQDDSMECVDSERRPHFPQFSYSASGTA

With `N[C@H](CNc1ncc(-c2cnc3c(c2)CC(=O)N3)s1)Cc1ccc(C(F)(F)F)nc1` [Example 227, 5-(2-((S)-2-amino-3-(6-(trifluoromethyl)pyridin-3-yl)propylamino)thiazol-5-yl)-1H-pyrrolo[2,3-b]pyridin-2(3H)-one], the IC50 lay within 50 to 1000 nM.

As for `N[C@H](CNc1nc(-c2cccc(F)c2F)c(-c2ccc3cnccc3c2)s1)Cc1ccc(C(F)(F)F)cc1` [Example 100, N—((S)-2-Amino-3-(4-(trifluoromethyl)phenyl)propyl)-4-(2,3-difluorophenyl)-5-(isoquinolin-6-yl)thiazol-2-amine], the half-inhibitory concentration (IC50) was in the range of 50 to 1000 nM.

For the compound `C[C@H](Nc1ncc(-c2ccc3[nH]c(=O)n(C)c3c2)s1)[C@@H](N)Cc1ccc(C(F)(F)F)cc1` [Example 237, 6-(2-((2S,3S)-3-amino-4-(4-(trifluoromethyl)phenyl)butan-2-ylamino)thiazol-5-yl)-1-methyl-1H-benzo[d]imidazol-2(3H)-one], the half-maximal inhibitory concentration (IC50) lay within 1000 to 10000 nM.

As for `COCOC(c1ccc(C(F)(F)F)cc1)C(N)CNc1ncc(-c2ccc3c(c2)CC(=O)N3)s1` (stereo not drawn) [Example 244], the IC50 lay within 1000 to 10000 nM.

Compound `N[C@H](CNc1ncc(-c2ccc3[nH]ncc3c2)s1)Cc1ccc(Cl)cc1` [Example 4, N—((S)-2-amino-3-(4-chlorophenyl)propyl)-5-(1H-indazol-5-yl)thiazol-2-amine] displayed an IC50 of under 50 nM.

As for `COCc1nc(N(C[C@@H](N)Cc2ccc(C(F)(F)F)cc2)C(C)=O)sc1-c1nc2ccncc2s1` [Example 26, N—((S)-2-amino-3-(4-(trifluoromethyl)phenyl)propyl)-N-(4-(methoxymethyl)-5-(thiazolo[5,4-c]pyridin-2-yl)thiazol-2-yl)acetamide], the IC50 lay in the range of 1000 to 10000 nM.

As for `COCc1nc(NC[C@@H](N)Cc2ccc(C(F)(F)F)cc2)sc1-c1ccc2[nH]c(=O)n(C)c2c1` [Example 58, 6-(2-((S)-2-amino-3-(4-(trifluoromethyl)phenyl)propylamino)-4-(methoxymethyl)thiazol-5-yl)-1-methyl-1H-benzo[d]imidazol-2(3H)-one], the IC50 lay within 50 to 1000 nM.

On to `N[C@H](CNc1nc(C#CC2=CCCC2)c(-c2ccc3cnccc3c2)s1)Cc1ccc(C(F)(F)F)cc1` [Example 147, N—((S)-2-amino-3-(4-(trifluoromethyl)phenyl)propyl)-4-(2-cyclopentenylethynyl)-5-(isoquinolin-6-yl)thiazol-2-amine], for which the half-maximal inhibitory concentration (IC50) lay in the range of 1000 to 10000 nM.

Consider `CC1C(=O)Nc2ccc(-c3cnc(NC[C@@H](N)Cc4ccccc4)s3)cc21` (stereo partly drawn) [Example 70, 5-(2-((S)-2-amino-3-phenylpropylamino)thiazol-5-yl)-3-methylindolin-2-one], for which the IC50 fell in the range of 1000 to 10000 nM.

Regarding `CC#Cc1nc(NC[C@@H](N)Cc2ccc(C(F)(F)F)cc2)sc1-c1ccc2[nH]nc(C)c2c1` [Example 153, N—((S)-2-amino-3-(4-(trifluoromethyl)phenyl)propyl)-5-(3-methyl-1H-indazol-5-yl)-4-(prop-1-ynyl)thiazol-2-amine], the IC50 was under 50 nM.

In turn, `CNCc1nc(NC[C@@H](N)Cc2ccc(C(F)(F)F)cc2)sc1-c1ccc2cnccc2c1` [Example 56, N—((S)-2-amino-3-(4-(trifluoromethyl)phenyl)propyl)-5-(isoquinolin-6-yl)-4-((methylamino)methyl)thiazol-2-amine] had an IC50 of 50 to 1000 nM.

The compound `N[C@H](CNc1ncc(-c2ccc3c(c2)CC(=O)N3)s1)Cc1ccc(C(F)(F)F)nc1` [Example 171, 5-(2-((S)-2-amino-3-(6-(trifluoromethyl)pyridine-3-yl)propylamino)thiazol-5-yl)indolin-2-one] came in with an IC50 of under 50 nM.

`N[C@H](CNc1ncc(-c2nc3ccncc3s2)s1)Cc1ccc(Cl)cc1` [Example 99, N—((S)-2-Amino-3-(4-chlorophenyl)propyl)-5-(thiazolo[5,4-c]pyridin-2-yl)thiazol-2-amine] returned an IC50 of under 50 nM.

In the case of `Nc1cc2cc(-c3cnc(NC[C@@H](N)Cc4ccc(Cl)cc4)s3)ccc2cn1` [Example 76, 6-(2-((S)-2-Amino-3-(4-chlorophenyl)propylamino)thiazol-5-yl)isoquinolin-3-amine], the half-maximal inhibitory concentration (IC50) is under 50 nM.

Consider `CCC[C@@H](c1ccc(C(F)(F)F)cc1)[C@H](N)CNc1ncc(-c2ccc3cnccc3c2)s1` [Example 157, N-((2S,3S)-2-amino-3-(4-(trifluoromethyl)phenyl)hexyl)-5-(isoquinolin-6-yl)thiazol-2-amine], for which the IC50 was under 50 nM.

Turning to `N[C@H](CNc1ncc(-c2ccc3c(c2)CC(=O)N3)s1)Cc1cccc(C(F)(F)F)c1` [Example 44, 5-(2-((S)-2-amino-3-(3-(trifluoromethyl)phenyl)propylamino)thiazol-5-yl)indolin-2-one], the IC50 is 50 to 1000 nM.

With `Cn1c(=O)[nH]c2ccc(-c3cnc(NC[C@@H](N)Cc4cccc(C(F)(F)F)c4)s3)cc21` [Example 82, 6-(2-((S)-2-Amino-3-(3-(trifluoromethyl)phenyl)-propylamino)thiazol-5-yl)-1-methyl-1H-benzo[d]imidazol-2(3H)-one], the IC50 lay in the range of 50 to 1000 nM.

On to `N[C@H](CNc1nc(COCC(F)(F)F)c(-c2nc3ccncc3s2)s1)Cc1cccc(Cl)c1` [Example 20, N—((S)-2-amino-3-(3-chlorophenyl)propyl)-5-(thiazolo[5,4-c]pyridin-2-yl)-4-((2,2,2-trifluoroethoxy)methyl)thiazol-2-amine], for which the concentration for half-maximal inhibition (IC50) was 1000 to 10000 nM.

Compound `COc1ccc(C[C@H](N)CNc2ncc(-c3ccc4c(c3)CC(=O)N4)s2)cc1` [Example 67, 5-(2-((S)-2-amino-3-(4-methoxyphenyl)propylamino)thiazol-5-yl)indolin-2-one] gave a 50% inhibitory concentration (IC50) of 50 to 1000 nM.

With `C[C@@H](c1ccc(C(F)(F)F)cc1)[C@H](N)CNc1ncc(-c2ccc3c(c2)C2(CC2)C(=O)N3)s1` [Example 200, 5′-(2-((2S,3S)-2-amino-3-(4-(trifluoromethyl)phenyl)butylamino)thiazol-5-yl)spiro[cyclopropane-1,3′-indol]-2′(1′H)-one], the half-maximal inhibitory concentration (IC50) lay in the range of 50 to 1000 nM.

For the compound `COc1ccc(CC(N)CNc2ncc(-c3ccc4[nH]c(=O)oc4c3)s2)cc1F` (stereo not drawn) [Example 129, 6-(2-(2-Amino-3-(3-fluoro-4-methoxyphenyl)propylamino)-thiazol-5-yl)benzo[d]oxazol-2(3H)-one], the concentration for half-maximal inhibition (IC50) lay within 50 to 1000 nM.

`Cn1c(=O)[nH]c2ccc(-c3cnc(NC[C@@H](N)Cc4ccc5ccccc5c4)s3)cc21` [Example 203, 6-(2-((S)-2-amino-3-(naphthalen-2-yl)propylamino)thiazol-5-yl)-1-methyl-1H-benzo[d]imidazol-2(3H)-one] displayed an IC50 of 50 to 1000 nM.

In turn, `N[C@H](CNc1ncc(-c2ccc3c(c2)CC(=O)N3)s1)Cc1ccc(OCCCCl)cc1` [Example 94, 5-(2-((S)-2-Amino-3-(4-(3-chloropropoxy)phenyl)propylamino)thiazol-5-yl)indolin-2-one] registered an IC50 of 1000 to 10000 nM.

For `COCc1nc(N(C[C@H](Cc2ccc(C(F)(F)F)cc2)NCCN2CCOCC2)C(C)=O)sc1-c1nc2ccncc2s1` [Example 33, N-(4-(methoxymethyl)-5-(thiazolo[5,4-c]pyridin-2-yl)thiazol-2-yl)-N—((S)-2-(2-morpholinoethylamino)-3-(4-(trifluoromethyl)phenyl)propyl)acetamide], the half-maximal inhibitory concentration (IC50) is over 10000 nM.

Consider `N[C@H](CNc1ncc(-c2ccc3c(c2)C(F)(F)C(=O)N3)s1)Cc1ccc(C(F)(F)F)cc1` [Example 41, 5-(2-((S)-2-amino-3-(4-(trifluoromethyl)phenyl)propylamino)thiazol-5-yl)-3,3-difluoroindolin-2-one], for which the IC50 was in the range of 50 to 1000 nM.

Turning to `COCc1nc(NC[C@@H](N)Cc2ccc(Cl)c(Cl)c2)sc1-c1nc2ccncc2s1` [Example 96, N—((S)-2-Amino-3-(3,4-dichlorophenyl)propyl)-4-(methoxymethyl)-5-(thiazolo[5,4-c]pyridin-2-yl)thiazol-2-amine], the concentration for half-maximal inhibition (IC50) was under 50 nM.

`N[C@H](CNc1nc(C#CCO)c(-c2ccc3c(c2)CC(=O)N3)s1)Cc1ccc(C(F)(F)F)cc1` [Example 145, 5-(2-((S)-2-amino-3-(4-(trifluoromethyl)phenyl)propylamino)-4-(3-hydroxyprop-1-ynyl)thiazol-5-yl)indolin-2-one]: the IC50 was under 50 nM.

Turning to `N[C@H](CNc1ncc(-c2nc3ccncc3s2)s1)Cc1ccc(C(F)(F)F)cc1` [Example 32, N—((S)-2-amino-3-(4-(trifluoromethyl)phenyl)propyl)-5-(thiazolo[5,4-c]pyridin-2-yl)thiazol-2-amine], the IC50 was under 50 nM.

Consider `COc1cc(C[C@H](N)CNc2ncc(-c3ccc4[nH]c(=O)n(C)c4c3)s2)cnc1C(F)(F)F` [Example 175, 6-(2-((S)-2-amino-3-(5-methoxy-6-(trifluoromethyl)pyridin-3-yl)propylamino)thiazol-5-yl)-1-methyl-1H-benzo[d]imidazol-2(3H)-one], for which the IC50 was under 50 nM.

For `N[C@H](CNc1nc(-c2ccccc2)c(-c2ccc3cnccc3c2)s1)Cc1ccc(C(F)(F)F)cc1` [Example 9, N—((S)-2-amino-3-(4-(trifluoromethyl)phenyl)propyl)-5-(isoquinolin-6-yl)-4-phenylthiazol-2-amine], the IC50 fell in the range of 50 to 1000 nM.

Turning to `C[C@@H](c1ccccc1)[C@H](N)CNc1ncc(-c2ccc3c(c2)CC(=O)N3)s1` [Example 90, 5-(2-((2S,3S)-2-Amino-3-phenylbutylamino)thiazol-5-yl)indolin-2-one], the half-maximal inhibitory concentration (IC50) was in the range of 1000 to 10000 nM.

`Cn1c(=O)[nH]c2ccc(-c3cnc(NCC(N)Cc4ccc(C(F)(F)F)c(F)c4F)s3)cc21` (stereo not drawn) [Example 191, 6-(2-(2-amino-3-(2,3-difluoro-4-(trifluoromethyl)phenyl)propylamino)thiazol-5-yl)-1-methyl-1H-benzo[d]imidazol-2(3H)-one] registered a half-maximal inhibitory concentration (IC50) of 50 to 1000 nM.

With `N[C@H](CNc1ncc(-c2ccc3cn[nH]c3c2)s1)Cc1ccc(C(F)(F)F)cc1` [Example 48, N—((S)-2-amino-3-(4-(trifluoromethyl)phenyl)propyl)-5-(1H-indazol-6-yl)thiazol-2-amine], the half-inhibitory concentration (IC50) fell in the range of 50 to 1000 nM.
